These results are taken from the supplement of paper PMC11208160.
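Note: IS621 recombinase and bridge RNA in Escherichia coli cells.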

A short description of this data set: recombinant barcode read abundance after kanamycin selection (control-corrected) (log10(CPM+1)); higher = more efficient recombination; sequences stand for … in AGTGCAGAGAAAATCGGCCAGTTTTCTCTGCCTGCAGTCCGCATGCCGT…AGATTTATGCAGCGGACTGCCTTTCTCCCAAAGTGATAAACCGGACAGTATCATGGACCGGTTTTCCCGGTAATCCGTATTTGCAAGGTTGGTTTCACT; site = the 11-nt target. The gist of the method: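 Pooled oligos, each joining a target to an IS621 bridge RNA target-binding loop, were cloned and co-electroporated with a donor plasmid into E. coli. Selective plates carried chloramphenicol/ampicillin/kanamycin and 0.1 mM IPTG, while chloramphenicol/ampicillin LB agar served as control, with two replicates of each. Recombination efficiency rests on averaged, control-corrected counts per million of barcodes at recombinant junctions, shown as log10(CPM+1).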
For the sequence “GGGTACCCTTGGGTTCTAACCTGTTGCCT (site GAGTACCCTAG)”, the “recombinant barcode read abundance (log10)” value amounted to 0.584.

Regarding “GGGTACCCTTGGGTTCTAACCTGTTGCCT (site GCGTACCCTAG)”, the “recombinant barcode read abundance (log10)” value is 0.126.

In the case of “GGGTACCCTTGGGTTCTAACCTGTTGCCT (site GGGTACCCTAG)”, the “recombinant barcode read abundance (log10)” value stood at 1.99.

As for “GGGTACCCTTGGGTTCTAACCTGTTGCCT (site GTGTACCCTAG)”, the “recombinant barcode read abundance (log10)” value came to 0.133.

Turning to “GGGTCGGCTTGGGTTCTAACCTGTTGCGC (site GGGTCGGCTAC)”, the “recombinant barcode read abundance (log10)” value was determined as 0.0769.

“GGGTCGGCTTGGGTTCTAACCTGTTGCGC (site GGGTCGGCTCC)”: the “recombinant barcode read abundance (log10)” value turned out to be 0.0276.

Regarding “GGGTCGGCTTGGGTTCTAACCTGTTGCGC (site GGGTCGGCTGC)”, the “recombinant barcode read abundance (log10)” value was determined as 1.88.

On to “GGGTCGGCTTGGGTTCTAACCTGTTGCGC (site GGGTCGGCTTC)”, for which the “recombinant barcode read abundance (log10)” value stood at 0.0981.

Take “GGGTCGGCTTGGGTTCTAACCTGTTGCGG (site GGGTCGGCTAC)”: the “recombinant barcode read abundance (log10)” value worked out at 0.147.

Regarding “GGGTCGGCTTGGGTTCTAACCTGTTGCGG (site GGGTCGGCTCC)”, the “recombinant barcode read abundance (log10)” value came to 2.44.

In the case of “GGGTCGGCTTGGGTTCTAACCTGTTGCGG (site GGGTCGGCTGC)”, the “recombinant barcode read abundance (log10)” value was found to be 0.0285.

On to “GGGTCGGCTTGGGTTCTAACCTGTTGCGG (site GGGTCGGCTTC)”, for which the “recombinant barcode read abundance (log10)” value was 0.609.

As for “GGGTCGGCTTGGGTTCTAACCTGTTGCTG (site GGGTCGGCTCA)”, the “recombinant barcode read abundance (log10)” value is 1.91.

Turning to “GGGTCGGCTTGGGTTCTAACCTGTTGCTG (site GTCTCGGCTCA)”, the “recombinant barcode read abundance (log10)” value is 0.0584.

As for “GGTAAATCTTGGGTTCTAACCTGTTGCCT (site GGTAAATCTAG)”, the “recombinant barcode read abundance (log10)” value is 0.459.

On to “GGTAAATCTTGGGTTCTAACCTGTTGCCT (site GGTAAGTCTAG)”, for which the “recombinant barcode read abundance (log10)” value stood at 0.359.

As for “GGTAACCCTTGGGTTCTAACCTGTTGCGG (site GGTAACCCTCC)”, the “recombinant barcode read abundance (log10)” value worked out at 2.24.

Turning to “GGTAACCCTTGGGTTCTAACCTGTTGCGG (site GGTCACCCTCC)”, the “recombinant barcode read abundance (log10)” value stood at 0.0921.

Take “GGTAACCCTTGGGTTCTAACCTGTTGCGG (site GGTGACCCTCC)”: the “recombinant barcode read abundance (log10)” value was 0.106.

On to “GGTAACCCTTGGGTTCTAACCTGTTGCGG (site GGTTACCCTCC)”, for which the “recombinant barcode read abundance (log10)” value is 0.425.

Take “GGTAAGACTTGGGTTCTAACCTGTTGCGG (site GCTAAGACTCA)”: the “recombinant barcode read abundance (log10)” value stood at 0.0264.

As for “GGTAAGACTTGGGTTCTAACCTGTTGCGG (site GGTAAGACTCC)”, the “recombinant barcode read abundance (log10)” value is 1.64.

With “GGTACTCCTTGGGTTCTAACCTGTTGCGT (site GGTACGCCTAC)”, the “recombinant barcode read abundance (log10)” value worked out at 0.18.

Regarding “GGTACTCCTTGGGTTCTAACCTGTTGCGT (site GGTACTCCTAC)”, the “recombinant barcode read abundance (log10)” value turned out to be 0.913.

Turning to “GGTAGGACTTGGGTTCTAACCTGTTGCGG (site AGTAGGCCTCC)”, the “recombinant barcode read abundance (log10)” value was 0.0127.

For the sequence “GGTAGGACTTGGGTTCTAACCTGTTGCGG (site GGTAGGACTCC)”, the “recombinant barcode read abundance (log10)” value amounted to 2.

“GGTATAACTTGGGTTCTAACCTGTTGCCA (site ACACCCTCTCT)”: the “recombinant barcode read abundance (log10)” value is 0.124.

As for “GGTATAACTTGGGTTCTAACCTGTTGCCA (site GGTATAACTTG)”, the “recombinant barcode read abundance (log10)” value is 0.132.

“GGTCCCGCTTGGGTTCTAACCTGTTGCCA (site GGGCCCGCTTA)”: the “recombinant barcode read abundance (log10)” value came to 0.485.

Turning to “GGTCCCGCTTGGGTTCTAACCTGTTGCCA (site GGTCCCGCTTG)”, the “recombinant barcode read abundance (log10)” value was found to be 1.77.

Take “GGTCGAGCTTGGGTTCTAACCTGTTGCCT (site GGTCGAGCTAG)”: the “recombinant barcode read abundance (log10)” value was found to be 1.13.

Take “GGTCGAGCTTGGGTTCTAACCTGTTGCCT (site GGTCGCGCTAG)”: the “recombinant barcode read abundance (log10)” value was 0.0193.

As to “GGTCGAGCTTGGGTTCTAACCTGTTGCCT (site GGTCGGGCTAG)”, the “recombinant barcode read abundance (log10)” value was found to be 0.146.

As to “GGTCGAGCTTGGGTTCTAACCTGTTGCCT (site GGTCGTGCTAG)”, the “recombinant barcode read abundance (log10)” value was 0.671.

Turning to “GGTCGTGCTTGGGTTCTAACCTGTTGCCT (site GGTCGAGCTAG)”, the “recombinant barcode read abundance (log10)” value is 0.304.

In the case of “GGTCGTGCTTGGGTTCTAACCTGTTGCCT (site GGTCGCGCTAG)”, the “recombinant barcode read abundance (log10)” value is 0.

As to “GGTCGTGCTTGGGTTCTAACCTGTTGCCT (site GGTCGGGCTAG)”, the “recombinant barcode read abundance (log10)” value amounted to 0.106.

As to “GGTCGTGCTTGGGTTCTAACCTGTTGCCT (site GGTCGTGCTAG)”, the “recombinant barcode read abundance (log10)” value was 1.14.

On to “GGTCTAACTTGGGTTCTAACCTGTTGCCT (site GGTCAAACTAG)”, for which the “recombinant barcode read abundance (log10)” value came out at 0.0448.

On to “GGTCTAACTTGGGTTCTAACCTGTTGCCT (site GGTCCAACTAG)”, for which the “recombinant barcode read abundance (log10)” value was determined as 0.631.

Regarding “GGTCTAACTTGGGTTCTAACCTGTTGCCT (site GGTCGAACTAG)”, the “recombinant barcode read abundance (log10)” value worked out at 0.128.

For “GGTCTAACTTGGGTTCTAACCTGTTGCCT (site GGTCTAACTAG)”, the “recombinant barcode read abundance (log10)” value worked out at 0.649.

As to “GGTCTGCCTTGGGTTCTAACCTGTTGCCT (site AGTCTGCCTAG)”, the “recombinant barcode read abundance (log10)” value was 0.171.

As to “GGTCTGCCTTGGGTTCTAACCTGTTGCCT (site CGTCTGCCTAG)”, the “recombinant barcode read abundance (log10)” value came out at 0.252.

With “GGTCTGCCTTGGGTTCTAACCTGTTGCCT (site GGTCTGCCTAG)”, the “recombinant barcode read abundance (log10)” value is 0.375.

As to “GGTCTGCCTTGGGTTCTAACCTGTTGCCT (site TGTCTGCCTAG)”, the “recombinant barcode read abundance (log10)” value was found to be 0.397.

For “GGTGAGACTTGGGTTCTAACCTGTTGCCA (site AGTGGGACTTG)”, the “recombinant barcode read abundance (log10)” value turned out to be 0.235.

Turning to “GGTGAGACTTGGGTTCTAACCTGTTGCCA (site GGTGAGACTTG)”, the “recombinant barcode read abundance (log10)” value amounted to 2.14.

Regarding “GGTGAGGCTTGGGTTCTAACCTGTTGCAT (site GGTGAGGCTAT)”, the “recombinant barcode read abundance (log10)” value came to 2.31.

For “GGTGAGGCTTGGGTTCTAACCTGTTGCAT (site TAACCTACTTA)”, the “recombinant barcode read abundance (log10)” value worked out at 0.214.

For the sequence “GGTGCATCTTGGGTTCTAACCTGTTGCTT (site ATATGTCCTTT)”, the “recombinant barcode read abundance (log10)” value is 0.0325.

Turning to “GGTGCATCTTGGGTTCTAACCTGTTGCTT (site GGTGCATCTAA)”, the “recombinant barcode read abundance (log10)” value was 0.0847.

For “GGTGCGTCTTGGGTTCTAACCTGTTGCCT (site AGTGCGTCTAG)”, the “recombinant barcode read abundance (log10)” value was 0.246.

“GGTGCGTCTTGGGTTCTAACCTGTTGCCT (site CGTGCGTCTAG)”: the “recombinant barcode read abundance (log10)” value is 0.132.

“GGTGCGTCTTGGGTTCTAACCTGTTGCCT (site GGTGCGTCTAG)”: the “recombinant barcode read abundance (log10)” value came out at 1.57.

As for “GGTGCGTCTTGGGTTCTAACCTGTTGCCT (site TGTGCGTCTAG)”, the “recombinant barcode read abundance (log10)” value is 0.119.

Turning to “GGTGCTCCTTGGGTTCTAACCTGTTGCAC (site GGTGCTCCTAT)”, the “recombinant barcode read abundance (log10)” value amounted to 0.085.

For “GGTGCTCCTTGGGTTCTAACCTGTTGCAC (site GGTGCTCCTCT)”, the “recombinant barcode read abundance (log10)” value was 0.04.

On to “GGTGCTCCTTGGGTTCTAACCTGTTGCAC (site GGTGCTCCTGT)”, for which the “recombinant barcode read abundance (log10)” value was found to be 0.684.
